For series [1], the target named is T1, α2,3(N)-sialyltransferase ST3GALIII (Rattus norvegicus, UniProt Q02734).
T1 construct: purchased Calbiochem
T1 sequence (Q02734 1-374): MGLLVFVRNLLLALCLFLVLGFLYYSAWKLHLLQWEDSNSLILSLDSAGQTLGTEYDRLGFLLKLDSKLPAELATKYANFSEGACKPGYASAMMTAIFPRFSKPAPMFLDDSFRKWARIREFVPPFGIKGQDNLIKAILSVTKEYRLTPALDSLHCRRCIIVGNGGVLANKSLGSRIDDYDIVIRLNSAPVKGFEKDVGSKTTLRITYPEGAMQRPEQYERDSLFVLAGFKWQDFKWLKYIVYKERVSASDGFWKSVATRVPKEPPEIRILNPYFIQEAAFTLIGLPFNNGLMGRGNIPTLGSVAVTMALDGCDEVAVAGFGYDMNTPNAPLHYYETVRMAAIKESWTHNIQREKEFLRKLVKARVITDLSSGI
Kind of series: Sialyltransferase activity assay, ST3GALIII. In kind it is biochemical. The following applies: calculated based on the concentration, of ST inhibitor used toward α2,3-O-ST3GALI, listed as 3 (FCW34). As for the experimental part: The enzymes analyzed in the present study included rat ST3Gal(I), rat ST3Gal(III), and human ST6Gal(I). Rat ST3Gal(I) and rat ST3Gal(Ill), were purchased from Calbiochem®, while human ST6Gal(I) was purchased from RnDSystems.com.
(§1) Sialyltransferase inhibition assay […] was performed as follows: Sialyltransferase activity was determined by measuring the level of the end product of sialylated saccharides with reverse-phase HPLC. The assay mixtures contained the following components: 200 mM MES buffer; 100 mM NaCl; 0.5 mM EDTA; 0.01% Triton X-100; 1.4 mU ST3GALI; 2.5 mM T-antigen; 1 mM CMP-Neu5Ac and different concentration of Sialyltransferase inhibitors to a total volume of 50 μl. The assay mixture was incubated at 37° C. for 15 mins and then quenched by heating up to 101′C for 10 mins. The sialylated product was resolved by reversed-phase HPLC. Kinetic data were obtained by fitting the initial rate data to the nonlinear regression equation.
as §1, with “mU ST6GALI; 25 μM Galβ1-4GlcNAc;” for “mU ST3GALI; 2.5 mM T-antigen;”, “to 101° C.” for “to 101′C”, “product is” for “product was”, “resolved with” for “resolved by”
Effects of the present compounds on the activity of sialyltransferase, including α2,3(N)-sialyltransferase ST3GALIII, α2,6(N)-sialyltransferases ST6GALI, and α2,3(O)-sialyltransferase ST3GALI, were determined in accordance with procedures described in the “Materials and Methods” section, and results are summarized in Table 1.

Series [2] deals with MDA-MB-231 cells. Kind of series: Transwell migration assay, breast cancer cells. The class given is cell-based, human. The text has this: Migration assays were done using a transwell, in which a polycarbonate filter pre-coated with Matrigel (8-μm pores, Millicell; Millipore, Billerica, Mass.) was inserted therein. […] Cells that had migrated to the underside of the inserted filter were stained with hematoxylin solution. The cells in the upper side of the inserted membrane were rubbed with a cotton swab. The migrated cells on the underside were pictured in a 200× magnification field and quantified.

The subject of series [3] is MDA-MB-231 breast cancer. The series is described as follows: Nude mice model of human MDA-MB-231 breast cancer. The class given is in vivo. How it is done: BALB/c mice (4-5 weeks old) were subcutaneously injected with 1×10^6 MDA-MB-231 cells to the mammary fat pad on day 0. Tumors were allowed to grow in the mice until the size of the tumor reached 100 mm^3, and then the animals were randomly assigned to 3 groups (n=6-8 per group): tumor (vehicle) control, 10 mg/kg the present compound (e.g., FCW34 or FCW66) treatment group. The present compound was intraperitoneally (i.p.) injected to test animals every three days. The growth and metastasis of the tumors were observed by IVIS imaging system, and the metastasized tumor tissues were collected on day 60, and measured for the volume (V) using calipers and calculated by the formula V=(L×W^2)/2, where L is the length and W is the width of tumor.
The effects of the sialyltransferase inhibitor in tumor growth and metastasis were investigated in a nude mice model of human MDA-MB-231 breast cancer established in accordance with procedures set forth in the “Materials and Methods” section. The MDA-MB-231/Luc cells (5×10^6 cells) were orthotopically injected into the mammary fat pad of nude mice. Then the mice were given FCW34 and vehicle, respectively, on day 20, and the tumor volume were evaluated by bioluminescence every 3 days using IVIS image analysis.

Series [4] concerns PANC-1 cells. The series is described as follows: In vitro transwell invasion analysis, PANC-1 cells. In kind it is cell-based, human. To be noted: PANC-1 cells grown in fructose-containing medium, FIG. 4. How it is done:
Migration assays were done using a transwell, in which a polycarbonate filter pre-coated with Matrigel (8-μm pores, Millicell; Millipore, Billerica, Mass.) was inserted therein. Cells were serum-starved for 24 h and then seeded (5×10^5 cells per upper chamber) and treated with or without the present compound(s) (concentrations as indicated), and the assays were run for 6 h. Cells that had migrated to the underside of the inserted filter were stained with hematoxylin solution. The cells in the upper side of the inserted membrane were rubbed with a cotton swab. The migrated cells on the underside were pictured in a 200× magnification field and quantified.
In this example, the ability of the FCW34 in suppressing the migration and/or invasion of pancreatic cancer cells was investigated using in vitro transwell analysis and in vivo mice model bearing pancreatic cancer.

Series [5] concerns PANC-1 pancreatic tumor. Kind of series: Inhibition of pancreatic tumor growth in SCID mice. The class given is in vivo. As for the experimental part: SCID mice (6 weeks old) were orthotopically injected with 1×10^5 human pancreatic cells PANC-1 grown in glucose-containing or fructose-containing medium with or without the presence of the present compound (e.g., FCW34, 5 μM) on day 0. The progression of the tumor was followed by bioluminescence IVIS image analysis, and the test animals were then sacrificed by cervical dislocation after 14 weeks, and respective tumors and the liver sections were collected, and analyzed by histochemical staining with SNA lectin to measure 2,6-sialylation levels utilizing FACS analysis.

Series [6] deals with T1, α2,3(N)-sialyltransferase ST3GALIII. Kind of series: Sialyltransferase activity assay, ST3GALIII. To be noted: α2,3-N-link; read-out: IC50 (μM) ST3GALIII. In kind it is biochemical.

The structures appear in SMILES notation. Marks after values point to notes of the source that are not given here.

Regarding `C[C@H](CCC(=O)OCCOCCOCCN=[N+]=[N-])C1CC[C@H]2[C@@H]3CC[C@@H]4C[C@H](OC(=O)[C@H](CC(=O)O)Nc5ccc([N+](=O)[O-])c6nonc56)CC[C@]4(C)[C@H]3CC[C@]12C` (stereo partly drawn) [Compound 3, (3S)-4-(((3R,5R,8R,9S,10S,13R,14S)-17-((R)-5-(2-(2-(2-azidoethoxy)ethoxy)ethoxy)-5-oxopentan-2-yl)-10,13-dimethylhexadecahydro-1H-cyclopenta[a]phenanthren-3-yl)oxy)-3-((7-nitrobenzo[c][1,2,5]oxadiazol-4-yl)amino)-4-oxobutanoic acid], the results for the “selectivity ratio ST3GALI/ST3GALIII” value in series [1] (500 μM) and in series [1] (1 mM) were >287^d and “(<575)^e”, respectively. In addition, the “migration of MDA-MD-231 cells” value in series [2] (20 μM, FIG. 1) is on record as “inhibited the migration”. In addition, the IC50 in series [2] (Homo sapiens, MDA-MB-231, 16 h, read-out: IC50 on migration) is 10.64 ± 0.09 µM; in series [6] it was 1.74 ± 0.09 µM. In series [3] (10 mg/Kg, FIG. 2B), the “growth of the cancer cells (tumors harvested on day 60)” value is “suppresses the growth”. Further, the “level of bioluminescence (tumor growth, IVIS)” value in series [3] (10 mg/Kg/mouse/3 days, FIG. 2A) is given as “remained at a relatively low level”. The “toxic effects (biochemistry tests of blood and body weight assessment)” value in series [3] (treated mice, data not shown) is recorded as “limited toxic effects”. For the same compound, in series [4], the invasion ability result is given as “significantly inhibited”. Also, the “metastatic lesions in livers (histological analysis)” value in series [5] (PANC-1 cells grown in fructose-containing medium) is “suppressed”. The “progression of the tumor” value in series [5] (PANC-1 cells pre-treated with FCW34, FIG. 5) is listed as “halted significantly”. Besides, in series [5] (mice bearing pancreatic cancer), the “Liver lesions Incidence” value was 0/3.

Source of the values: patent US10889611B2, “Sialyltransferase inhibitors and uses thereof” (Academia Sinica, priority 2015, dated 2021).
